The text below walks through data of a melting point compilation (Tetko et al.; mined from patent text by program, amines drawn as free bases though some values may be those of a salt).

In turn, `COC(=O)Cc1ccc(OCc2ccc3ccccc3n2)c(Br)c1` showed a melting point of 90 °C.

The molecule `Cc1cc(Cn2c(-c3ccccc3)nc(Cl)c2CC#N)ccc1O` registered a melting point of 194 to 196 °C. The value for `Nc1cccc2c1CN(C1CCC(=O)NC1=O)C2=O` (stereo not given) was 250 to 252 °C; that for `Cc1ccccc1[C@H](O)CCc1c(C(=O)N(C)C)cc2c(nc(C)n2C)c1O` was 200 to 202 °C. `COc1ccc(CNc2c(Cl)cnn(-c3ccccc3)c2=O)cc1` came in with a melting point of 125 to 126 °C. The value for `CS(=O)(=O)Nc1cc2occc(=O)c2cc1Oc1ccccc1` was 217 to 218 °C. The result for `Oc1ccc(-c2nc3cc(O)c(Cl)cc3o2)cc1` reads 260 to 262 °C; that for `O=C(O)c1cc2c(F)c(F)c(F)c(F)c2s1`, 200 °C.

For `CC(=O)c1cc(CC(C)O)c(OCCCCC#N)cc1O` (stereo not given), the melting point lay within 86 to 88 °C. The value for `Nc1cc(=O)n(-c2ccccc2)[nH]1` was 218 to 219 °C; that for `Cn1ncnc1COc1nc2c(-c3ccccc3)nncc2cc1-c1ccccc1` was 222 to 223 °C; that for `CCCCCCCCc1cc2c(cc1CCCCCCCC)c1ccsc1c1sccc21` was 62.2 to 63.1 °C. Molecule `Cc1[nH]c(=O)n(-c2cc(C(=O)OC(C)C)c(Cl)cc2F)c(=O)c1C#N` had a melting point of 189 to 193 °C. `O=C(O)COc1ccc(C(=O)CCN2CCN(c3ccncc3)CC2)cc1` came in with a melting point of 238 to 239 °C. `COCCCn1c(COc2ccccc2)nc2c(N)nc3ccccc3c21` returned a melting point of 152 °C. The result for `CS(=O)Cc1ccc(C(=O)c2ccc(Cl)cc2)cc1` (stereo not given) reads 116 to 118 °C. On to `Nc1nc(O)c2c(n1)NCC(CCc1ccc(C(=O)N[C@@H](CCC(=O)O)C(=O)O)c(F)c1)C2` (stereo not given in full), for which the melting point is 199 to 209 °C. `O=[N+]([O-])c1ccc(OCC#CC#CCOc2ccc([N+](=O)[O-])cc2[N+](=O)[O-])cc1` had a melting point of 125 °C. For the molecule `CCCCCCCCCCCCCCOc1cc(-c2ccccc2)c(OCC(=O)O)c(-c2ccccc2)c1`, the melting point was in the range of 89 to 90 °C. The value for `COc1ccc(OC)c2c1C[C@](O)(C(C)=O)CC21SCCS1` was 175 to 178 °C; that for `COc1ccc2cc3c(=O)n(C)cc(C(=O)NCCN(C)C)c3nc2c1` was 213 to 215 °C.

Regarding `Cc1ccccc1-c1cnc2c(C(F)(F)F)cccc2c1-c1cccc(NC(=O)Nc2ccccc2)c1`, the melting point is 192 to 195 °C.

For the molecule `C#CCn1c(CC)nc2c(N)nc3ccccc3c21`, the melting point lay within 182 to 184 °C. The value for `O=c1ccc(-c2c(-c3ccccc3)nn3ccncc23)c[nH]1` was more than 250 °C; that for `Cc1cccc(N2CCCCC2)c1NC(N)=S` was 197 to 198 °C; that for `CCc1nc2c(c(C)c(C)n3nnnc23)n1CCOCCN1CCCC1=O` was 141 to 143 °C. `CC1CN(C(=O)COc2cc(-c3ccccc3)nc3ccccc23)CC(C)O1` (stereo not given): the melting point turned out to be 117 °C. The value for `CC(=O)c1cn(S(=O)(=O)c2ccccc2)c2nccc(OCC3CCCCC3)c12` was 138 to 140 °C; that for `CC(C)=CCCn1c(=O)sc2c(=O)[nH]c(N)nc21` was 240 to 242 °C; that for `COc1ccc(Nc2cc(-c3ccccc3)nc(NC3CCC(O)CC3)n2)cc1Cl` (stereo not given) was 293 to 295 °C. The value for `Cc1cc(F)ccc1-c1nc(NC2CCCCC2)nc2c1ccc(=O)n2-c1ccccc1F` was 181 to 182 °C.

As for `O=c1ccc2cn(C3OC(CO)C(O)C3O)c(=O)[nH]c-2n1` (stereo not given), the melting point fell in the range of 189 to 190 °C. `C#Cc1cn(C2CC(O)C(COC(c3ccccc3)(c3ccccc3)c3ccccc3)O2)c(=O)[nH]c1=O` (stereo not given) displayed a melting point of 110 °C. As to `Cc1c(C)c(N2CCN(c3nccs3)CC2)c(C)c2c1OC(C)(C)C2`, the melting point lay in the range of 150 to 151 °C.

`CC(C(=O)O)c1ccc(C(=O)c2cc3ccsc3s2)cc1` (stereo not given) gave a melting point of 150 °C.

Consider `COc1ccc(C(=O)C=Cc2cc(Br)ccc2O)cc1`, for which the melting point was in the range of 177 to 179 °C.

`CCNc1nc(-c2ccccc2)c(-c2ccccc2)nc1Cl` showed a melting point of 115 to 122 °C. For `COc1cc(C(=O)NCCc2cccc(C)c2)cc(OC)c1OC`, the melting point was in the range of 105 to 108 °C. The result for `CCOC(=O)c1nn(-c2ccccc2Br)c(=O)c(C#N)c1C` reads 106 to 108 °C; that for `O=C1C=C(O)CC(c2ccc3c(c2)OCO3)C1` (stereo not given), 181 °C; that for `COc1cc2c(c(Cl)c1Cl)C(=O)C(c1ccccc1)(C1CCCC1)C2` (stereo not given), 105 to 108 °C. The value for `O=C(CN1CCC(Cc2ccccc2)CC1)Nc1ccc2c(c1)NC(=O)CO2` was 220 to 222 °C. On to `CCC(Oc1ccc2ncccc2c1)C(=O)O` (stereo not given), for which the melting point was 78 to 80 °C.

Molecule `N=C(N)Nc1cc(C(=O)O)ccc1N1C(=O)CCC1CO` (stereo not given) had a melting point of 253 to 257 °C. The result for `CCOC(=O)C1(Cc2cccnc2)CCCN(C(=O)c2ccc(Nc3nccc(Nc4ccc(F)cc4)n3)cc2)C1` (stereo not given) reads 119 °C; that for `O=P1(O)OCc2ccccc21`, 167 °C. The result for `COc1cccc(CC2CCCc3cc(OCc4ccccc4)c(OC)cc3N2)c1` (stereo not given) reads 92 to 93 °C. The molecule `CCOC(=O)c1cnc2c([N+](=O)[O-])c(Cl)c(F)cc2c1O` came in with a melting point of 226 to 228 °C. Consider `NS(=O)(=O)c1c(Cl)cccc1-c1ccccc1Cl`, for which the melting point lay in the range of 151 to 153 °C.

`OCC1OC(n2cnc3c(NCc4ccc(Br)cc4)ncnc32)C(O)C1O` (stereo not given) displayed a melting point of 179 °C.

`COC(=O)c1c(CSc2nccn2C)nc2cc(OC)c(OC)cc2c1-c1ccc(OC)c(OC)c1` came in with a melting point of 159 to 160 °C. The value for `COCCOc1cc2ncc(C#N)c(Nc3cc(OC)c(Cl)cc3Cl)c2cc1OCCN1CCOCC1` was 158 to 159 °C. The result for `COc1ccc(N2CCN(c3ccc(C)cc3)CC2)c(-c2ccc(N(C)C)cc2)n1` reads 170 to 173 °C; that for `Cc1nccn1CC1CCc2c(c3ccccc3n2C)/C1=N/O` (stereo not given), 231 to 233 °C; that for `O=S(CC1CO1)c1ncc(Cl)cn1` (stereo not given), 92 °C. In turn, `O=C1C=C(c2ccc(Cl)c(Cl)c2)C(=O)O1` returned a melting point of 112 °C. The value for `CCCCn1nc(C(C)(F)F)nc1Cc1ccc(-c2ccccc2-c2nnn[nH]2)nc1` was 180 to 182 °C; that for `COCCOc1cc(-c2ccccn2)nc(-c2ccccn2)c1` was 105 to 106 °C. The result for `CC(c1oc2ccccc2c(=O)c1-c1ccccc1)n1nc(-c2cccc(O)c2)c2c(N)ncnc21` (stereo not given) reads 212 to 216 °C; that for `CSc1nc2ccc(Br)cc2o1`, 95 to 96 °C; that for `Cc1cccc(NC(=O)c2cccc(C(F)(F)F)c2)c1C(=O)O`, 198 to 204 °C. The value for `Cc1cc(-c2ccc(Cl)cc2)sc1C(=O)O` was 245 to 246 °C; that for `COc1cc(C(=O)N(C(C)C)C(C)C)ccc1OCCCCCOc1ccc(C=NN)cc1` was 112 to 114 °C; that for `Cc1c(Br)c(N2CC[C@H](N(C)C)C2)c2oc(C3CC3)nc2c1C#N` was 82 to 86 °C. In turn, `CCCn1c(=O)c2[nH]c(/C=C/c3ccc(OCC)cc3)nc2n(CCC)c1=O` displayed a melting point of 262 °C. `Clc1cc(Cl)cc(C=C2CCC3(CC2)OCCO3)c1` came in with a melting point of 66 °C. The molecule `Brc1cnc(SCc2cccs2)nc1` came in with a melting point of 87 °C. For `c1ccc(CNc2nc3c(c4[nH]c(Cc5ccccc5)nc24)CCCC3)cc1`, the melting point was in the range of 199 to 200 °C. The result for `[N-]=[N+]=Nc1nc(N=[N+]=[N-])nc(-c2ccccc2)n1` reads 130 to 132 °C; that for `CC(Oc1ccc(Oc2ncc(Cl)cc2F)cc1)C(=O)O` (stereo not given), 95 to 97 °C.

`O=c1c2c(cnn1-c1ccccc1)C(Cc1ccccc1)NCCS2` (stereo not given) gave a melting point of 174 to 175 °C. Molecule `O=C(O)C(=O)c1ccc(OCC(=O)C2CCCCCCC2)cc1` had a melting point of 109 to 110 °C. The value for `CCCCC1Cc2c(c3cccnc3n(-c3ccc(F)cc3)c2=O)O1` (stereo not given) was 258 to 260 °C; that for `COc1ccc(Cl)cc1-c1n[nH]c(=O)cc1NN` was 285 to 290 °C. The value for `CCOC(=O)CCCOc1ccc(N2CCN(c3ccncc3)CC2)cc1` was 84 to 85 °C; that for `COC(=O)[C@H](Cc1ccc(OCCCN(C)Cc2ccccc2)cc1)NC(=O)[C@@H]1CCCN1S(=O)(=O)c1ccc(C)cc1` was 60 to 70 °C; that for `Fc1ccc(-c2onc3c(CBr)cccc23)cc1` was 145 to 148 °C.

`O=C1CC=C(c2c[nH]c3ccc([N+](=O)[O-])cc23)CC1`: the melting point lay in the range of 210 to 212 °C. For `CNC(=O)N(c1ccccc1)c1ncc(C)n1-c1ccccc1`, the melting point worked out at 147 °C. The result for `COC(=O)[C@H](Cc1cncn1C)NC(=O)C(Cc1cccc2ccccc12)Cc1cccc2ccccc12` reads 199 to 200 °C.

`CC(=O)Nc1ccc(C(=O)Nc2c(C)cccc2C)cc1` showed a melting point of 293 to 295 °C. The molecule `O=C1c2ccccc2C(=O)N1CCCCN1CCN(C(c2ccccc2)c2ccccc2)CC1` gave a melting point of 125 to 129 °C. The value for `CN1CCC(=C2c3cc(C=O)n(C)c3CCn3ncnc32)CC1` was 204 °C; that for `Clc1nc(Cl)nc(C2CC2)n1` was 106 to 107 °C; that for `CNC(=O)Cn1nc(-c2ccccc2)c(-c2ccccc2)c(C#N)c1=O` was 292 to 294 °C. The value for `COc1cc2c(cc1OC)C(C=Cc1ccc(Cl)c(Cl)c1)=NNC(C)C2` (stereo not given) was 132 to 133 °C; that for `O=c1cc(O)c(Cl)cn1COCc1ccccc1` was 165 to 167 °C. `COc1nc2c(C)cccc2c2c1CCN2c1ccccc1C` had a melting point of 107 to 108 °C. The value for `COc1cc(N)c(Cl)cc1C(=O)N[C@H]1CCN(Cc2cccnc2)C[C@H]1OC` (relative stereo) was 189 °C; that for `COc1cc(OC)c2c(=O)[nH]c(-c3cc(C)c(OCCO)c(C)c3)cc2c1` was 193 to 195 °C.

What is called melting point is the temperature of the solid-liquid transition.
